In patent US10093660B2, “Sulfoximine substituted quinazolines for pharmaceutical compositions” (EVOTEC INTERNATIONAL GMBH, priority 2013, dated 2018):

Legend:
[1] = tested on: MNK2 (MNK2a or MNK2b) or MNK1; settings: cell culture cells transfected with MNK2 (MNK2a or MNK2b) or MNK1; cited from earlier work
MNK2a = MNK2a (Homo sapiens (Human), UniProt Q9HBH9); assay: MNK2a in vitro kinase assay (Assay 2), ADP-Glo; assay type: biochemical; settings: assay 2; read-out: MNK2 IC50
Text: B. MNK2a In Vitro Kinase Assay (Assay 2)

MNK1a = MNK1a (Homo sapiens (Human), UniProt Q9BUB5); assay: MNK1 in vitro kinase assay (Assay 3), Z'-LYTE; assay type: biochemical; settings: for inhibition at 1 µM: compound concentration of 1 μM, read-out: MNK1 % INH
MNK1a, sequence (Q9BUB5 other isoform, or with tags, fused parts or gaps): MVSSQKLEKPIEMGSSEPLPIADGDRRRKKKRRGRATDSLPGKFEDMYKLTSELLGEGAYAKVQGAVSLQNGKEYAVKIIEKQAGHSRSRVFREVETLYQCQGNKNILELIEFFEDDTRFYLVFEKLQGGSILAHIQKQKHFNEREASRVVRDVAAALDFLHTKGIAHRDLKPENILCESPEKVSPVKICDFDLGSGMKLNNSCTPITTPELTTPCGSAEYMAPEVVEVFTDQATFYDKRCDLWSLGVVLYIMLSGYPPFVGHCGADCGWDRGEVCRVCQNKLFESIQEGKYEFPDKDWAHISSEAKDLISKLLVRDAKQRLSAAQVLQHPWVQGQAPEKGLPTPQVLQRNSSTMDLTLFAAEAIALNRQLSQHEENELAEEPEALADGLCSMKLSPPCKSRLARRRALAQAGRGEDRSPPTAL

MNK2a, sequence (Q9HBH9 whole entry): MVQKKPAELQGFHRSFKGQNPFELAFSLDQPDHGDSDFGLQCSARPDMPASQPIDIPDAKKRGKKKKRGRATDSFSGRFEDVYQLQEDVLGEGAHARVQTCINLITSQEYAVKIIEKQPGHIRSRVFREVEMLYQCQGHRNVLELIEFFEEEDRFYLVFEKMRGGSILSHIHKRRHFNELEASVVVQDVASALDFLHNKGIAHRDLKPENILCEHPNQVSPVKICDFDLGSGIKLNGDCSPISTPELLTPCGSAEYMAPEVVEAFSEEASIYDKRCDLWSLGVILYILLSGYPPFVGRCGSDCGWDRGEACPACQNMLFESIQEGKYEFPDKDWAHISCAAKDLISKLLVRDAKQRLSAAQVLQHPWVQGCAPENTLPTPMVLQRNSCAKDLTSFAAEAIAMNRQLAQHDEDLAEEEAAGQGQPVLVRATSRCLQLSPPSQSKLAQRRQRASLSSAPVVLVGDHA

Compound | IC50 (MNK2a) | inhibition at 1 µM (MNK1a) | IC50 (MNK1a) | reduction of phosphorylated eIF4E [1]
Nc1ncnc2n[nH]c(Nc3ccc(F)cc3)c12 [CGP57380] |  |  |  | strong reduction of phosphorylated eIF4E
CO[C@@H]1CN(C)C[C@H]1Oc1cc(F)ccc1Nc1ncnc2cc(N=S3(=O)CCCC3)cc(C)c12 [Example 11.2] | 31 nM | 75% |  | 
Cc1cc(N=S2(=O)CCCC2)cc2ncnc(Nc3ccc(F)cc3O[C@@H]3COC[C@@H]3OCc3ccccc3)c12 [Example 13.3] | 15 nM | 79% |  | 
CO[C@@H]1COC[C@@H]1Oc1cc(F)ccc1Nc1ncnc2cc(N=S(C)(C)=O)cc(C)c12 [Example 14.8] | 1 nM |  | 80 nM | 

Now from value to compound, other results behind:

IC50 (MNK2a) | inhibition at 1 µM (MNK1a) | IC50 (MNK1a) | Compound | reduction of phosphorylated eIF4E [1]
54 nM | 44% |  | CO[C@@H]1CN(C)C[C@H]1Oc1cc(F)ccc1Nc1ncnc2cc(N=S(C)(C)=O)cc(C)c12 [Example 11.1] | 
12 nM | 87% |  | CO[C@@H]1CN(C)C[C@H]1Oc1ncccc1Nc1ncnc2cc(N=S3(=O)CCCC3)cc(C)c12 [Example 11.3] | 
59 nM | 56% |  | CO[C@@H]1CN(C)C[C@H]1Oc1ncccc1Nc1ncnc2cc(N=S(C)(C)=O)cc(C)c12 [Example 11.4] | 
